Laboratory results from US7670784B2, “β-Benzyloxyaspartic acid derivatives having two substituents on their benzene rings” (Suntory Holdings Limited, priority 2004, dated 2010).
pIC50: −log10 of the molar value.

How the values were obtained:
human EAAT3 = molecular target: T1, human EAAT3 (Homo sapiens, UniProt P43005); experiment: [14C]glutamate uptake inhibition in human EAAT3 constitutively expressed in MDCK cells; format: cell-based; details: 1 μM L-[14C]glutamate, 12 minutes incubation
T1 construct: expressed in transfected cells; host or cells: MDCK (Madin-Darby Canine Kidney) cells
T1 sequence (P43005 1-524): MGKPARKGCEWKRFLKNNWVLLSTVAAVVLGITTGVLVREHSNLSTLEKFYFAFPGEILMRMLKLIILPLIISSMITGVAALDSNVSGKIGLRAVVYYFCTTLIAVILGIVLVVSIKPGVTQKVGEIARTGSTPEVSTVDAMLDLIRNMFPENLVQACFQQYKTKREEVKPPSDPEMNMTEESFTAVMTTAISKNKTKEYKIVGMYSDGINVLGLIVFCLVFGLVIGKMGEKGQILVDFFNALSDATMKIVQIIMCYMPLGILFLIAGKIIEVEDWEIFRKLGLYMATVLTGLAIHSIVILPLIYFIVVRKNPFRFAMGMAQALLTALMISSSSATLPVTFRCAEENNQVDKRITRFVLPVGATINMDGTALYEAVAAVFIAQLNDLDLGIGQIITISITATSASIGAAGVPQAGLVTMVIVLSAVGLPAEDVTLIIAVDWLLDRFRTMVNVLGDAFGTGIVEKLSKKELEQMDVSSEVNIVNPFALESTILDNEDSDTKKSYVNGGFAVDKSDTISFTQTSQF
Procedure: (§1) According to the known method (Shimamoto, K. et al., Mol. Pharmacol. 53, 195-201, 1998; Bioorg. Med. Chem. Lett. 10, 2407-2410, 2000), the inhibitory effect against [^14C]glutamate uptake was measured in human EAAT2 or EAAT3 constitutively expressed in MDCK (Madin-Darby Canine Kidney) cells. Glutamate uptake activity was determined as follows: 1 μM L-[^14C]glutamate and a sample at a given concentration were added and incubated for 12 minutes, followed by solubilizing the cells to measure incorporated radioactivity with a liquid scintillator. The amount of uptake was expressed as a percentage, assuming that uptake in the absence of a test compound (buffer alone) was set to 100% and uptake in a sodium-free solution was set to 0%.

human EAAT2 = molecular target: T2, human EAAT2 (Homo sapiens, UniProt P43004); experiment: [14C]glutamate uptake inhibition in human EAAT2 constitutively expressed in MDCK cells; format: cell-based; details: 1 μM L-[14C]glutamate, 12 minutes incubation
T2 construct: expressed in transfected cells; host or cells: MDCK (Madin-Darby Canine Kidney) cells
T2 sequence (P43004 whole entry): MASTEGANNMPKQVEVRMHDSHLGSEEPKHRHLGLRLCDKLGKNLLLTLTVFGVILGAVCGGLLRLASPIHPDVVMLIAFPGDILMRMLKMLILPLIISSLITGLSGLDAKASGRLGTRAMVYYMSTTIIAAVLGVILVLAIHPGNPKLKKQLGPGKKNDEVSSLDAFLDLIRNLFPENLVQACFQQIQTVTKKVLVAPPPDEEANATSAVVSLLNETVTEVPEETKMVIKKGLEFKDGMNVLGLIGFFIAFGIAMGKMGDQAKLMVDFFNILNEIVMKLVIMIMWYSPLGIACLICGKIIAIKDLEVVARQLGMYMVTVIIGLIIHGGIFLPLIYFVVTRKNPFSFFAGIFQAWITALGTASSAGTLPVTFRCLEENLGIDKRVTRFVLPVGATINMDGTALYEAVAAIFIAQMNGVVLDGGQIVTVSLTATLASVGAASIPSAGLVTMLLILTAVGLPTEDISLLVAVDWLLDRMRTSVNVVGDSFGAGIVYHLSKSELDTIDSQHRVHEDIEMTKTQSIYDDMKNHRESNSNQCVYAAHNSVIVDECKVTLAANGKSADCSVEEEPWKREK
Procedure: as §1

glutamate transporters = details: Shimamoto et al., Mol. Pharmacol. 65, 2004; cited from earlier work

| SMILES | pIC50 (human EAAT3) | pIC50 (human EAAT2) | IC50 value for uptake inhibitory activity (glutamate transporters) |
| --- | --- | --- | --- |
| N[C@H](C(=O)O)[C@H](OCc1ccccc1)C(=O)O [L-TBOA, L-threo-β-benzyloxyaspartic acid, reference compound] | 5.89 | 5.89 | – |
| CCC(=O)Nc1cc(CO[C@H](C(=O)O)[C@H](N)C(=O)O)cc(NC(=O)c2ccc(C(F)(F)F)cc2)c1 [Compound 14, (2S,3S)-3-(3-propionylamido-5-[4-(trifluoromethyl)benzamido]benzyloxy)aspartic acid] | 6.95 | 8.33 | – |
| N[C@H](C(=O)O)[C@H](OCc1cc(NC(=O)c2ccc(C(F)(F)F)cc2)cc(NC(=O)c2ccc(C(F)(F)F)cc2)c1)C(=O)O [Compound 11, (2S,3S)-3-{3,5-bis[4-(trifluoromethyl)benzamido]benzyloxy}aspartic acid] | 9.34 | 8.89 | – |
| NCCOCCOCCOCCOCC(=O)NCCCCCC(=O)NCCCCCC(=O)Nc1cc(CO[C@H](C(=O)O)[C@H](N)C(=O)O)cc(NC(=O)c2ccc(C(F)(F)F)cc2)c1 [Compound 10, (2S,3S)-3-(3-(6-(6-(2-(2-(2-(2-(2-aminoethoxy)ethoxy)ethoxy)ethoxy)acetamido)hexanamido)hexanamido)-5-(4-(trifluoromethyl)benzamido)benzyloxy)aspartic acid] | 6.09 | 7.64 | – |
| N[C@H](C(=O)O)[C@H](OCc1cccc(NC(=O)c2ccc(C(F)(F)F)cc2)c1)C(=O)O [TFB-TBOA] | – | – | in the order of nM |
